Laboratory results as given in the NIST ThermoML archive (doi:10.1021/je0501843).
Values joined by “and” are separate entries in the source; they are usually repeats but may differ in a detail not shown here. Identical values can stand only once.

Assay: molar heat capacity at constant volume
Settings: Fluid (supercritical or subcritical phases), Vacuum adiabatic calorimetry

FC(F)C(F)(F)F [pentafluoroethane]
Settings | molar heat capacity at constant volume
365 K, Mass density=773.3 kg/m3 | 119.04 J/K/mol
365 K, Mass density=881.8 kg/m3 | 110.32 J/K/mol
365 K, Mass density=973.8 kg/m3 | 106.41 J/K/mol and 108.3 J/K/mol
365 K, Mass density=1075 kg/m3 | 105.75 J/K/mol
366 K, Mass density=403.6 kg/m3 | 108.16 J/K/mol
366 K, Mass density=503 kg/m3 | 114.45 J/K/mol
366 K, Mass density=585.5 kg/m3 | 119.7 J/K/mol and 112.44 J/K/mol
366 K, Mass density=688.1 kg/m3 | 116.48 J/K/mol
366 K, Mass density=881.7 kg/m3 | 110.43 J/K/mol
366 K, Mass density=973.7 kg/m3 | 107.62 J/K/mol and 109.23 J/K/mol
366 K, Mass density=1074.9 kg/m3 | 106.22 J/K/mol
367 K, Mass density=403.6 kg/m3 | 110.86 J/K/mol
367 K, Mass density=502.9 kg/m3 | 113.31 J/K/mol
367 K, Mass density=585.4 kg/m3 | 117.62 J/K/mol and 110.28 J/K/mol
367 K, Mass density=688.1 kg/m3 | 115.05 J/K/mol
367 K, Mass density=881.7 kg/m3 | 109.7 J/K/mol
367 K, Mass density=973.6 kg/m3 | 107.58 J/K/mol and 108.96 J/K/mol
367 K, Mass density=1074.8 kg/m3 | 106.41 J/K/mol
368 K, Mass density=403.5 kg/m3 | 111.09 J/K/mol
368 K, Mass density=502.9 kg/m3 | 112.14 J/K/mol
368 K, Mass density=585.4 kg/m3 | 115.53 J/K/mol and 108.9 J/K/mol
368 K, Mass density=688 kg/m3 | 113.01 J/K/mol
368 K, Mass density=773.1 kg/m3 | 111.16 J/K/mol
368 K, Mass density=881.6 kg/m3 | 109.62 J/K/mol
368 K, Mass density=973.6 kg/m3 | 106.75 J/K/mol and 108.55 J/K/mol
368 K, Mass density=1074.7 kg/m3 | 106.17 J/K/mol
369 K, Mass density=403.5 kg/m3 | 111.67 J/K/mol
369 K, Mass density=502.9 kg/m3 | 113.46 J/K/mol
369 K, Mass density=585.4 kg/m3 | 118.03 J/K/mol and 110.31 J/K/mol
369 K, Mass density=688 kg/m3 | 114.37 J/K/mol
369 K, Mass density=773.1 kg/m3 | 112.65 J/K/mol
369 K, Mass density=881.6 kg/m3 | 110.94 J/K/mol
369 K, Mass density=973.5 kg/m3 | 108.28 J/K/mol and 109.62 J/K/mol
369 K, Mass density=1074.6 kg/m3 | 106.18 J/K/mol
370 K, Mass density=403.5 kg/m3 | 111.22 J/K/mol
370 K, Mass density=502.9 kg/m3 | 114.85 J/K/mol
370 K, Mass density=585.4 kg/m3 | 118.04 J/K/mol and 108.82 J/K/mol
370 K, Mass density=687.9 kg/m3 | 116.1 J/K/mol
370 K, Mass density=773 kg/m3 | 113 J/K/mol
370 K, Mass density=881.5 kg/m3 | 111.13 J/K/mol
370 K, Mass density=973.4 kg/m3 | 107.54 J/K/mol and 109.82 J/K/mol
370 K, Mass density=1074.5 kg/m3 | 106.55 J/K/mol
371 K, Mass density=403.5 kg/m3 | 112.09 J/K/mol
371 K, Mass density=502.9 kg/m3 | 116.62 J/K/mol
371 K, Mass density=585.3 kg/m3 | 116.07 J/K/mol and 110.26 J/K/mol
371 K, Mass density=687.9 kg/m3 | 113.67 J/K/mol
371 K, Mass density=773 kg/m3 | 111.62 J/K/mol
371 K, Mass density=881.4 kg/m3 | 110.7 J/K/mol
371 K, Mass density=973.3 kg/m3 | 107.44 J/K/mol and 109.17 J/K/mol
371 K, Mass density=1074.4 kg/m3 | 107.07 J/K/mol
372 K, Mass density=403.5 kg/m3 | 114.04 J/K/mol
372 K, Mass density=502.8 kg/m3 | 115.24 J/K/mol
372 K, Mass density=585.3 kg/m3 | 115.84 J/K/mol and 110.71 J/K/mol
372 K, Mass density=687.9 kg/m3 | 112.84 J/K/mol
372 K, Mass density=772.9 kg/m3 | 111.54 J/K/mol
372 K, Mass density=881.4 kg/m3 | 110.3 J/K/mol
372 K, Mass density=973.3 kg/m3 | 107.17 J/K/mol and 108.04 J/K/mol
372 K, Mass density=1074.3 kg/m3 | 106.22 J/K/mol
373 K, Mass density=403.5 kg/m3 | 113.17 J/K/mol
373 K, Mass density=502.8 kg/m3 | 117.01 J/K/mol
373 K, Mass density=585.3 kg/m3 | 117.2 J/K/mol and 110.91 J/K/mol
373 K, Mass density=687.8 kg/m3 | 113.56 J/K/mol
373 K, Mass density=772.9 kg/m3 | 111.8 J/K/mol
373 K, Mass density=881.3 kg/m3 | 111.19 J/K/mol
373 K, Mass density=973.2 kg/m3 | 107.61 J/K/mol and 108.78 J/K/mol
374 K, Mass density=403.4 kg/m3 | 114.45 J/K/mol
374 K, Mass density=502.8 kg/m3 | 119.13 J/K/mol
374 K, Mass density=585.3 kg/m3 | 117.5 J/K/mol and 112.68 J/K/mol
374 K, Mass density=687.8 kg/m3 | 114.16 J/K/mol
374 K, Mass density=772.9 kg/m3 | 112.71 J/K/mol
374 K, Mass density=881.2 kg/m3 | 112 J/K/mol
374 K, Mass density=973.1 kg/m3 | 108.98 J/K/mol and 110.07 J/K/mol
375 K, Mass density=403.4 kg/m3 | 112.95 J/K/mol
375 K, Mass density=502.8 kg/m3 | 117.92 J/K/mol
375 K, Mass density=585.2 kg/m3 | 116.64 J/K/mol and 110.73 J/K/mol
375 K, Mass density=687.8 kg/m3 | 113.4 J/K/mol
375 K, Mass density=772.8 kg/m3 | 112.33 J/K/mol
375 K, Mass density=881.2 kg/m3 | 111 J/K/mol
375 K, Mass density=973 kg/m3 | 108.25 J/K/mol and 109.81 J/K/mol
376 K, Mass density=403.4 kg/m3 | 116.08 J/K/mol
376 K, Mass density=502.8 kg/m3 | 116.37 J/K/mol
376 K, Mass density=585.2 kg/m3 | 116.55 J/K/mol and 110.52 J/K/mol
376 K, Mass density=687.7 kg/m3 | 113.56 J/K/mol
376 K, Mass density=772.8 kg/m3 | 112.56 J/K/mol
376 K, Mass density=881.1 kg/m3 | 110.12 J/K/mol
376 K, Mass density=973 kg/m3 | 107.55 J/K/mol and 109 J/K/mol
377 K, Mass density=403.4 kg/m3 | 115.48 J/K/mol
377 K, Mass density=502.7 kg/m3 | 117.28 J/K/mol
377 K, Mass density=585.2 kg/m3 | 116.34 J/K/mol and 111.62 J/K/mol
377 K, Mass density=687.7 kg/m3 | 114.45 J/K/mol
377 K, Mass density=772.7 kg/m3 | 113.06 J/K/mol
377 K, Mass density=881.1 kg/m3 | 110.86 J/K/mol
377 K, Mass density=972.9 kg/m3 | 108.42 J/K/mol and 108.94 J/K/mol
378 K, Mass density=403.4 kg/m3 | 113.28 J/K/mol
378 K, Mass density=502.7 kg/m3 | 118.29 J/K/mol
378 K, Mass density=585.1 kg/m3 | 116.82 J/K/mol and 112.87 J/K/mol
378 K, Mass density=687.6 kg/m3 | 114.84 J/K/mol
378 K, Mass density=772.7 kg/m3 | 112.51 J/K/mol
378 K, Mass density=881 kg/m3 | 111.43 J/K/mol
378 K, Mass density=972.8 kg/m3 | 108.14 J/K/mol and 110.22 J/K/mol
379 K, Mass density=403.3 kg/m3 | 117.97 J/K/mol
379 K, Mass density=502.7 kg/m3 | 115.21 J/K/mol
379 K, Mass density=585.1 kg/m3 | 116.17 J/K/mol and 112.3 J/K/mol
379 K, Mass density=687.6 kg/m3 | 115.82 J/K/mol
379 K, Mass density=772.6 kg/m3 | 113.55 J/K/mol
379 K, Mass density=880.9 kg/m3 | 111.09 J/K/mol
379 K, Mass density=972.7 kg/m3 | 107.65 J/K/mol and 109.27 J/K/mol
380 K, Mass density=403.3 kg/m3 | 116.02 J/K/mol
380 K, Mass density=502.7 kg/m3 | 112.64 J/K/mol
380 K, Mass density=585.1 kg/m3 | 111.27 J/K/mol
380 K, Mass density=687.6 kg/m3 | 113.06 J/K/mol
380 K, Mass density=772.6 kg/m3 | 113.31 J/K/mol
380 K, Mass density=880.9 kg/m3 | 111.18 J/K/mol
380 K, Mass density=972.6 kg/m3 | 107.71 J/K/mol and 108.81 J/K/mol
381 K, Mass density=403.3 kg/m3 | 114.7 J/K/mol
381 K, Mass density=502.6 kg/m3 | 115.06 J/K/mol
381 K, Mass density=585 kg/m3 | 114.39 J/K/mol
381 K, Mass density=687.5 kg/m3 | 113.14 J/K/mol
381 K, Mass density=772.5 kg/m3 | 113.07 J/K/mol
381 K, Mass density=880.8 kg/m3 | 112.11 J/K/mol
381 K, Mass density=972.6 kg/m3 | 113.29 J/K/mol and 109.7 J/K/mol
382 K, Mass density=403.3 kg/m3 | 116.14 J/K/mol
382 K, Mass density=502.6 kg/m3 | 117.31 J/K/mol
